Source: article PMC6804443 (Acta Pharmaceutica Sinica. B, 2019)
Starred links: 1 amine or outer side, 2 acyl side, 3 side chain; linkers in the order of their positions; H or OH if unused. Positions of bridges follow the written chain, without caps; N, C: chain ends. Non-standard residues stand in square brackets, D forms with d. Residues, ends and D or L forms follow the SMILES beside them. *: point of attachment. hTyr(3S-OH,4S-OH,3'-OSO3H) = N[C@H](C(=O)O)[C@H](O)[C@@H](O)c1ccc(O)c(OS(=O)(=O)O)c1; Orn(4R-OH,5R-OH) = O=C([C@H](C[C@@H](O)[C@@H](O)N[*:3])N[*:1])[*:2]; Pro(3S-OH,4S-Me) = C[C@H]1CN[C@H](C(=O)O)[C@H]1O; X1 = CCCCCOc1ccc(-c2cc(-c3ccc(C(=O)*)cc3)no2)cc1; Gln(3R-OH) = NC(=O)C[C@@H](O)[C@H](N)C(=O)O; Hyp = O=C(O)[C@@H]1C[C@@H](O)CN1

Assays:
[1] = molecular target: T1, UGT2B15 (Homo sapiens, UniProt P54855); format: in vitro ADME
T1 sequence (P54855 24-530): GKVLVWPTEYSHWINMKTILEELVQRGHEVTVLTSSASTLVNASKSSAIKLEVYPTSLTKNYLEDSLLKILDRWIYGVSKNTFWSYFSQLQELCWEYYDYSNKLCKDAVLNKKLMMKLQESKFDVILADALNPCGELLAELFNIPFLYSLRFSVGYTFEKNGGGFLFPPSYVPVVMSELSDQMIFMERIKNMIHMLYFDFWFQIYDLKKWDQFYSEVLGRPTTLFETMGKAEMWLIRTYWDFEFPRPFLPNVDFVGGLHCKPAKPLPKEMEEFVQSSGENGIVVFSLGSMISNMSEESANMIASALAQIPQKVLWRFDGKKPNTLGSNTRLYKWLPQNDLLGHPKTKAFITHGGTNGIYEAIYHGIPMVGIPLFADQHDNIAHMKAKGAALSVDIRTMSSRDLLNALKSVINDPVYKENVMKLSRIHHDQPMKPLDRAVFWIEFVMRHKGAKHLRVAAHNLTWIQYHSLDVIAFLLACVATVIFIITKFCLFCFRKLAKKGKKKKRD

[2] = molecular target: T2, OAT2 (Homo sapiens, UniProt Q9Y694); assay: OAT2 inhibition by antibiotics, transfected HEK293 cells, tanshinol as substrate; format: in vitro ADME; details: for inhibition at 100 µM: HEK293, read-out: Inhibition of OAT2
T2 sequence (Q9Y694 1-546 isoform Q9Y694-2): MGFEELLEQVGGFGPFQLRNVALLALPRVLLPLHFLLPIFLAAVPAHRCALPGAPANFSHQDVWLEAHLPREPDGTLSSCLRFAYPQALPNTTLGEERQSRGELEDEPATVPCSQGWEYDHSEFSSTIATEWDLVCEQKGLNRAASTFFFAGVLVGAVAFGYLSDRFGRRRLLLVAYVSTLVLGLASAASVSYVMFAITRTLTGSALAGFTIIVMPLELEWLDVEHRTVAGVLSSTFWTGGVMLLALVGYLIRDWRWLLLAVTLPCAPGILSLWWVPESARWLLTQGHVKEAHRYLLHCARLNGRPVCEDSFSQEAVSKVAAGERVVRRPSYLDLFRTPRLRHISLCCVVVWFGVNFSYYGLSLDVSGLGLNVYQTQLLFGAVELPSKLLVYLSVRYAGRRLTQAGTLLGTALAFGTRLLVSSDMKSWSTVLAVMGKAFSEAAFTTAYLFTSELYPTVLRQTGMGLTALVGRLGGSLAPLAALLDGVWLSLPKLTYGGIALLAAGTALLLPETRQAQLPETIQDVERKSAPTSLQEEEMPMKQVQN

[3] = molecular target: T3, OATP1B3 (Homo sapiens, UniProt Q9NPD5); assay: in vitro
T3 sequence (Q9NPD5 1-702): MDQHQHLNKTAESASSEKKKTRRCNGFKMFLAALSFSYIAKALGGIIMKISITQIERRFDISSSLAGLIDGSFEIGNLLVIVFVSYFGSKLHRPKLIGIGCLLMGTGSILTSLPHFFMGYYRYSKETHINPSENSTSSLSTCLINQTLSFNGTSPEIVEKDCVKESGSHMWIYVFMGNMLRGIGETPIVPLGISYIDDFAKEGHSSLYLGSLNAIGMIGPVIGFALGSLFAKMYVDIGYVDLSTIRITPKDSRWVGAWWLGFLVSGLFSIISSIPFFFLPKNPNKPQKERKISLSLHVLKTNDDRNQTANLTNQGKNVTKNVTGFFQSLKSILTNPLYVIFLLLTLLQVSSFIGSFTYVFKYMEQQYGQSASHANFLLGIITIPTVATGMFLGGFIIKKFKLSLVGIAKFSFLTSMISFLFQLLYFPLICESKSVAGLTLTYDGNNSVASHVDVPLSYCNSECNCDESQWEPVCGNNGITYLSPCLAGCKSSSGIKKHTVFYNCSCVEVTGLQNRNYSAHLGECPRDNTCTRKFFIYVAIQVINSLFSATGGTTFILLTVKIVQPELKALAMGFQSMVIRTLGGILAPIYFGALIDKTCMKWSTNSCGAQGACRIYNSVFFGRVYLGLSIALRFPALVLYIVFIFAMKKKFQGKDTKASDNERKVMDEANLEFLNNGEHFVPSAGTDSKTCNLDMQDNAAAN

[4] = molecular target: T4, OAT1 (Homo sapiens, UniProt Q4U2R8); assay: OAT1 inhibition by antibiotics, transfected HEK293 cells, tanshinol as substrate
T4 sequence (Q4U2R8 1-563): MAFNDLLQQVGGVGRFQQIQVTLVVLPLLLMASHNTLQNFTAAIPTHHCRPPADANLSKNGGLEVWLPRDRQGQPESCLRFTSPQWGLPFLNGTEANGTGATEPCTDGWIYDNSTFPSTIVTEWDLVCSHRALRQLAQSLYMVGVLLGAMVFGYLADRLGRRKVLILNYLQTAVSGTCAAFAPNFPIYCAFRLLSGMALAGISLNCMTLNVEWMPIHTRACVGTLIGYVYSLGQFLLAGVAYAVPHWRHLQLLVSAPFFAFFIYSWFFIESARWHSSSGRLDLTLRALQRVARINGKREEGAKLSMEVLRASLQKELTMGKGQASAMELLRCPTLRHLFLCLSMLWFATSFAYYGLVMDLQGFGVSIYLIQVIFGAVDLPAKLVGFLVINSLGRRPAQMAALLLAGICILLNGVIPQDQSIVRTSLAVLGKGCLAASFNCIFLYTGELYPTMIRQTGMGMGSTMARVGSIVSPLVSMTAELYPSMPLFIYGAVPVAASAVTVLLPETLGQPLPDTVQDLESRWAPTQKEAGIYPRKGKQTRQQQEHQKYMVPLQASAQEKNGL

[5] = molecular target: T3, OATP1B3; details: IC50, OATP1B3 [X10], mean ± SD (n = 3)
[6] = molecular target: T3, OATP1B3; details: antibiotic as perpetrator, salvianolic acid B (X10) as victim; (Cmax × fu-p × R)/IC50
[7] = test system: ALDH; format: in vitro ADME; details: human, pooled human liver cytosol

Row | Structure (SMILES) | IC50 [5] [µM] | Inhibition DDI index, OATP1B3 [6] | inhibition at 1000 μmol/L [3] [%] | IC50 [7] [µM] | inhibition at 1000 μmol/L [7] [%] | further results
1 | CCCCCOc1ccc(-c2cc(-c3ccc(C(=O)N[C@H]4C[C@@H](O)[C@@H](O)NC(=O)[C@@H]5[C@@H](O)[C@@H](C)CN5C(=O)[C@H]([C@H](O)CC(N)=O)NC(=O)[C@H]([C@H](O)[C@@H](O)c5ccc(O)c(OS(=O)(=O)O)c5)NC(=O)[C@@H]5C[C@@H](O)CN5C(=O)[C@H]([C@@H](C)O)NC4=O)cc3)no2)cc1 [A40, micafungin] (X1-[Orn(4R-OH,5R-OH)]T[Hyp][hTyr(3S-OH,4S-OH,3'-OSO3H)][Gln(3R-OH)][Pro(3S-OH,4S-Me)]; lactam 1-C) | 3 ± 1 | – | – | – | – | IC50 [1]: 3 µM; inhibition at 100 μmol/L ([1]; human, cDNA-expressed UGT2B15): ≥ 90%; IC50 [2]: 26 ± 2 µM; inhibition at 100 µM [2]: > 90%; inhibition at 100 μmol/L [3]: > 90%; IC50 [4]: 43 ± 4 µM; inhibition at 100 μmol/L ([4]; human): ≥ 90%
2 | CO/N=C(\C(=O)N[C@@H]1C(=O)N2C(C(=O)O)=C(COC(C)=O)CS[C@H]12)c1csc(N)n1 [A9, cefotaxime] | 68 ± 20 | 1.81–2.14 | 64 to 88 | – | – | –
3 | CC(C)(O/N=C(\C(=O)N[C@@H]1C(=O)N2C(C(=O)[O-])=C(C[n+]3ccccc3)CS[C@H]12)c1csc(N)n1)C(=O)O [A7, ceftazidime] | – | – | – | 1030 ± 155 | – | inhibition at 5000 μmol/L [7]: 56 to 88%
4 | CO/N=C(\C(=O)N[C@@H]1C(=O)N2C(C(=O)O)=C(CSc3nc(=O)c(=O)[nH]n3C)CS[C@H]12)c1csc(N)n1 [A6, ceftriaxone] | 201 ± 48 | 0.68 | 64 to 88 | – | – | –
5 | CO[C@@]1(NC(=O)Cc2cccs2)C(=O)N2C(C(=O)O)=C(COC(N)=O)CS[C@@H]21 [A20, cefoxitin] | 26 ± 19 | 2.81 | > 90 | 983 ± 117 | 56 to 88 | IC50 [1]: 57 ± 11 µM; Inhibition DDI index, UGT2B15 ([1]; antibiotic as perpetrator, senkyunolide I (X5) as victim, (Cmax × fu-p × R)/IC50): 1.28; inhibition at 1000 μmol/L ([1]; human, cDNA-expressed UGT2B15): ≥ 90%
6 | C[C@H]1COc2c(N3CCN(C)CC3)c(F)cc3c(=O)c(C(=O)O)cn1c23 [A31, levofloxacin] | – | – | – | – | – | IC50 [2]: 50 ± 9 µM; inhibition at 100 µM [2]: 60 to 84%; Inhibition DDI index, OAT2 ([2]; antibiotic as perpetrator, tanshinol (X8) as victim, (Cmax × fu-p × R)/IC50): 0.36
7 | CC1(C)S[C@@H]2[C@H](NC(=O)Cc3ccccc3)C(=O)N2[C@H]1C(=O)O [A15, penicillin G] | 56 ± 21 | – | – | 308 ± 68 | – | inhibition at 5000 μmol/L [3]: > 90%
8 | C[C@@H](O)[C@H]1C(=O)N2C(C(=O)O)=C(S[C@@H]3CN[C@H](C(=O)N(C)C)C3)[C@H](C)[C@H]12 [A2, meropenem] | – | – | – | 164 ± 39 | 56 to 88 | –
9 | C[C@@H](O)[C@H]1C(=O)N2C(C(=O)O)=C(SCCN=CN)C[C@H]12 [A1, imipenem] | – | – | – | 120 ± 30 | 56 to 88 | –
